The values that follow come from patent US20250034135A1, “ANTI-APOPTOTIC PROTEIN BCL-2 INHIBITOR, PHARMACEUTICAL COMPOSITION AND USES THEREOF” (HANGZHOU HEALZEN THERAPEUTICS CO., LTD., priority 2021, published 2025).

Each structure is given as a SMILES string.

Chain of BCL2 (P10415 whole entry): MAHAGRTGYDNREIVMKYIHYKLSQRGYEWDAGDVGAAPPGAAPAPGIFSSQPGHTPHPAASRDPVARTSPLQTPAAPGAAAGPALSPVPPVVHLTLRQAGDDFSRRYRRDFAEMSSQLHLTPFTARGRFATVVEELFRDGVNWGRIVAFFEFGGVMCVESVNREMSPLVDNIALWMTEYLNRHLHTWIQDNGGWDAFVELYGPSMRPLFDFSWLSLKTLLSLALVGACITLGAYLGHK
Chain of BCL-XL (Q07817 whole entry): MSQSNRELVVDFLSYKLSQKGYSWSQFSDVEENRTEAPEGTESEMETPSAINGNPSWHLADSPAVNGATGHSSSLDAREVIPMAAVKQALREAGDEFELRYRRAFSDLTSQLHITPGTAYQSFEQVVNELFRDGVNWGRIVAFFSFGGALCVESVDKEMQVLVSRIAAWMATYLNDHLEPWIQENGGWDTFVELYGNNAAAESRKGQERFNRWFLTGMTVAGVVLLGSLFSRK

For one assay, the target named is BCL2 (Homo sapiens (Human), UniProt P10415). In words: Molecular level activity test of anti-apoptotic protein BCL2 (HTRF, binding to Bim peptide). Particulars: HTRF, binding of BCL2 to Bim peptide; read-out: BCL2 nM (inhibitory activity, IC50). The method, boiled down:
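Competition binding format: recombinant His-BCL2 and a biotin-Bim peptide are incubated with compound for 1 h, followed by 4 h at room temperature with HTRF detection antibodies.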
Take `CC(C)c1ccc(CN2CCN(C3CC4(CCN(c5cc(Oc6cnc7[nH]ccc7c6)c(C(=O)NS(=O)(=O)c6ccc(NCC7(F)CCOCC7)c([N+](=O)[O-])c6)cc5F)CC4)C3)[C@H](c3ccccc3C(C)C)C2)cc1` [compound 193, (R)-2-((1H-pyrrolo[2,3-b]pyrid-5-yl)oxy)-5-fluoro-N-((4-(((4-fluorotetrahydro-2H-pyran-4-yl)methyl)amino)-3-nitrophenyl)sulfonyl)-4-(2-(4-(4-isopropylbenzyl)-2-(2-isopropylphenyl)piperazin-1-yl)-7-azaspiro[3.5]non-7-yl)benzamide]: the IC50 was less than 10 nM.
In the case of `COc1ccc(CN2C[C@@H](c3ccccc3C(C)C)N(C3CC4(CCN(c5cc(Oc6cnc7[nH]ccc7c6)c(C(=O)NS(=O)(=O)c6ccc(NCC7(F)CCOCC7)c([N+](=O)[O-])c6)cc5F)CC4)C3)C[C@H]2C)cc1` [compound 155, 2-((1H-pyrrolo[2,3-b]pyrid-5-yl)oxy)-5-fluoro-N-((4-(((4-fluorotetrahydro-2H-pyran-4-yl)methyl)amino)-3-nitrophenyl)sulfonyl)-4-(2-((2R,5R)-2-(2-isopropylphenyl)-4-(4-methoxybenzyl)-5-methylpiperazin-1-yl)-7-azaspiro[3.5]non-7-yl)benzamide], the IC50 is less than 10 nM.
The same measure, in the same setting: in the case of `COc1ccc(CN2CCN(C3CC4(CCN(c5cc(Oc6cnc7[nH]ccc7c6)c(C(=O)NS(=O)(=O)c6cc([N+](=O)[O-])c(NCC7CCOCC7)c7[nH]cnc67)cn5)CC4)C3)C(c3ccccc3C(C)C)C2)cc1` (stereo not drawn) [compound 075, 4-((1H-pyrrolo[2,3-b]pyrid-5-yl)oxy)-6-(2-(2-(2-isopropylphenyl)-4-(4-methoxybenzyl)piperazin-1-yl)-7-azaspiro[3.5]non-7-yl)-N-((6-nitro-7-(((tetrahydro-2H-pyran-4-yl)methyl)amino)-1H benzo[d]imidazol-4-yl)sulfonyl) nicotinamide] it was less than 10 nM; in that of `CC(C)c1ccccc1[C@@H]1CN(Cc2ccc(F)cc2F)CCN1C1CC2(CCN(c3ccc(C(=O)NS(=O)(=O)c4cc([N+](=O)[O-])c(NCC5(F)CCOCC5)c5c4OCO5)c(Oc4cnc5[nH]ccc5c4)c3)CC2)C1` [compound 169, (R)-2-((1H-pyrrolo[2,3-b]pyrid-5-yl)oxy)-4-(2-(4-(2,4-difluorobenzyl)-2-(2-isopropylphenyl)piperazin-1-yl)-7-azaspiro[3.5]non-7-yl)-N-((7-(((4-fluorotetrahydro-2H-pyran-4-yl)methyl)amino)-6-nitrobenzo[d][1,3]dioxocyclopent-4-yl)sulfonyl)benzamide], less than 10 nM.
The same measure, in the same setting: to `CC(C)c1ccccc1[C@@H]1CN(Cc2ccncc2)CCN1C1CC2(CCN(c3cc(Oc4cnc5[nH]ccc5c4)c(C(=O)NS(=O)(=O)c4ccc(NC[C@H]5CC[C@](C)(O)CC5)c([N+](=O)[O-])c4)cc3F)CC2)C1` [compound 231, 2-((1H-pyrrolo[2,3-b]pyrid-5-yl)oxy)-5-fluoro-N-((4-((((1r, 4r)-4-hydroxy-4-methylcyclohexyl)methyl)amino)-3-nitrophenyl)sulfonyl)-4-(2-((R)-2-(2-isopropylphenyl)-4-(pyrid-4-ylmethyl)piperazin-1-yl)-7-azaspiro[3.5]non-7-yl)benzamide] belongs less than 10 nM.
For the compound `COc1ccc(CN2CCN(C3CC4(CCN(c5cc(Oc6cnc7[nH]cc(F)c7c6)c(C(=O)NS(=O)(=O)c6ccc(NCC7(F)CCN(C(C)C)CC7)c([N+](=O)[O-])c6)cn5)CC4)C3)C(c3ccccc3C(C)C)C2)cc1` (stereo not drawn) [compound 061, N-((4-(((4-fluoro-1-isopropylpiperid-4-yl)methyl)amino)-3-nitrophenyl)sulfonyl)-4-((3-fluoro-1H-pyrrolo[2,3-b]pyrid-5-yl)oxy)-6-(2-(2-(2-isopropylphenyl)-4-(4-methoxybenzyl)piperazin-1-yl)-7-azaspiro[3.5]non-7-yl) nicotinamide], the half-inhibitory concentration (IC50) is less than 10 nM.
The same measure, in the same setting: in the case of `COc1cc(CN2CCN(C3CC4(CCN(c5cc(Oc6cnc7[nH]ccc7c6)c(C(=O)NS(=O)(=O)c6ccc(NCC7(F)CCOCC7)c([N+](=O)[O-])c6)cc5F)CC4)C3)[C@H](c3ccccc3C(C)C)C2)ccc1C(C)C` [compound 194, (R)-2-((1H-pyrrolo[2,3-b]pyrid-5-yl)oxy)-5-fluoro-N-((4-(((4-fluorotetrahydro-2H-pyran-4-yl)methyl)amino)-3-nitrophenyl)sulfonyl)-4-(2-(4-(4-isopropyl-3-methoxybenzyl)-2-(2-isopropylphenyl)piperazin-1-yl)-7-azaspiro[3.5]non-7-yl)benzamide] it was less than 10 nM; in that of `CC(C)c1ccccc1[C@@H]1CCCN1C1CC2(CCN(c3ccc(C(=O)NS(=O)(=O)c4cc([N+](=O)[O-])c(NCC5(F)CCOCC5)c5[nH]cnc45)c(N4CCCOc5nc6[nH]ccc6cc54)c3)CC2)C1` [compound 088, (S)-2-(3,4-dihydro-2H-pyrrolo[3′,2′:5,6]pyridino[2,3-b][1,4]oxazacyclohept-1 (7H)-yl)-N-((7-(((4-fluorotetrahydro-2H-pyran-4-yl)methyl)amino)-6-nitro-1H-benzo[d]imidazol-4-yl)sulfonyl)-4-(2-(2-(2-isopropylphenyl)pyrrolidin-1-yl)-7-azaspiro[3.5]non-7-yl)benzamide], less than 10 nM; in that of `CC(C)c1ccccc1[C@@H]1CCCN1C1CC2(CCN(c3cc(N4CCOc5nc6[nH]ccc6cc54)c(C(=O)NS(=O)(=O)c4cc([N+](=O)[O-])c(NCC5(F)CCN(C(C)C)CC5)c5[nH]cnc45)cn3)CC2)C1` [compound 083, (S)-4-(2,3-dihydropyrrolo[3′,2′:5,6]pyridino[2,3-b][1,4]oxazin-1 (6H)-yl)-N-((7-(((4-fluoro-1-isopropylpiperid-4-yl)methyl)amino)-6-nitro-1H-benzo[d]imidazol-4-yl)sulfonyl)-6-(2-(2-(2-isopropylphenyl)pyrrolidin-1-yl)-7-azaspiro[3.5]non-7-yl) nicotinamide], less than 10 nM.
For `COc1ccc(CN2CCN(C3CC4(CCN(c5cc(Oc6cnc7[nH]ccc7c6)c(C(=O)NS(=O)(=O)c6cc([N+](=O)[O-])c(NCC7(F)CCOCC7)c7ocnc67)cc5F)CC4)C3)[C@H](c3ccccc3C(C)C)C2)cc1` [compound 107, (R)-2-((1H-pyrrolo[2,3-b]pyrid-5-yl)oxy)-5-fluoro-N-((7-(((4-fluorotetrahydro-2H-pyran-4-yl)methyl)amino)-6-nitrobenzo[d]oxazol-4-yl)sulfonyl)-4-(2-(2-(2-isopropylphenyl)-4-(4-methoxybenzyl)piperazin-1-yl)-7-azaspiro[3.5]non-7-yl)benzamide], the IC50 was less than 10 nM.
Still for that read-out and setting: in the case of `COc1ccc(CN2CCN(C3CC4(CCN(c5cc(Oc6cnc7[nH]ccc7c6)c(C(=O)NS(=O)(=O)c6ccc(NCC7(F)CCOCC7)c([N+](=O)[O-])c6)cc5F)CC4)C3)[C@H](c3ccccc3C(C)C)C2)c2c1OCCO2` [compound 206, (R)-2-((1H-pyrrolo[2,3-b]pyrid-5-yl)oxy)-5-fluoro-N-((4-(((4-fluorotetrahydro-2H-pyran-4-yl)methyl)amino)-3-nitrophenyl)sulfonyl)-4-(2-(2-(2-isopropylphenyl)-4-(8-methoxy-2,3-dihydrobenzo[b][1,4-dioxan-5-yl)methyl)piperazin-1-yl)-7-azaspiro[3.5]non-7-yl)benzamide] it was less than 10 nM.
Same read-out and setting: in the case of `COc1ccc(CN2CCN(C3CC4(CCN(c5cc(Oc6cnc7[nH]ccc7c6)c(C(=O)NS(=O)(=O)c6cc([N+](=O)[O-])c(NCC7(F)CCOCC7)c7c6OCC7)cc5F)CC4)C3)[C@H](c3ccccc3C(C)C)C2)cc1` [compound 142, (R)-2-((1H-pyrrolo[2,3-b]pyrid-5-yl)oxy)-5-fluoro-N-((4-(((4-fluorotetrahydro-2H-pyran-4-yl)methyl)amino)-5-nitro-2,3-dihydrobenzofuran-7-yl)sulfonyl)-4-(2-(2-(2-isopropylphenyl)-4-(4-methoxybenzyl)piperazin-1-yl)-7-azaspiro[3.5]non-7-yl)benzamide] it was less than 10 nM; in that of `CC(C)c1ccccc1[C@@H]1CN(Cc2ccc(C3CC3)cc2)CCN1C1CC2(CCN(c3ccc(C(=O)NS(=O)(=O)c4cc([N+](=O)[O-])c(NCC5(F)CCOCC5)c5c4OCO5)c(Oc4cnc5[nH]ccc5c4)c3)CC2)C1` [compound 172, (R)-2-((1H-pyrrolo[2,3-b]pyrid-5-yl)oxy)-4-(2-(4-(4-cyclopropylbenzyl)-2-(2-isopropylphenyl)piperazin-1-yl)-7-azaspiro[3.5]non-7-yl)-N-((7-(((4-fluorotetrahydro-2H-pyran-4-yl)methyl)amino)-6-nitrobenzo[d][1,3]dioxocyclopent-4-yl)sulfonyl)benzamide], less than 10 nM; in that of `COc1ccc(CN2CCN(C3CC4(CCN(c5cc(Oc6cnc7[nH]ccc7c6)c(C(=O)NS(=O)(=O)c6cc([N+](=O)[O-])c(NCC7(F)CCOCC7)c7ocnc67)cc5F)CC4)C3)[C@H](c3ccccc3C(C)C)C2)c(F)n1` [compound 131, (R)-2-((1H-pyrrolo[2,3-b]pyrid-5-yl)oxy)-5-fluoro-4-(2-(4-((2-fluoro-6-methoxypyrid-3-yl)methyl)-2-(2-isopropylphenyl)piperazin-1-yl)-7-azaspiro[3.5]non-7-yl)-N-((7-(((4-fluorotetrahydro-2H-pyran-4-yl)methyl)amino)-6-nitrobenzo[d]yl)sulfonyl)benzamide], less than 10 nM.

The target of a further assay is BCL-XL (Homo sapiens (Human), UniProt Q07817). In words: BCL-XL enzyme molecular level activity test (HTRF, binding to BIM peptide). The settings on record: binding of BCL-XL to BIM peptide, values in nM, read-out: BCL-XL inhibitory activity (IC50). Here is the method:
In a white shallow 384-well plate, a total reaction volume was 10 μL. Specifically, it included 2 μL of the compound to be tested (2% DMSO), […] His-tagged recombinant protein, and 4 μL Biotin-tagged BIM protein peptide. After 1 hour of reaction, 5 μL of each Anti-His and streptavidin-tagged XL665 antibody diluents diluted with a detection buffer were added. After incubating at room temperature for 4 hours, the values were read using the Envision multifunctional microplate reader to detect the effect of the compound to be tested on the binding ability of BCL-XL to BIM protein peptides. The Envision parameter settings were exciting light at 320 nm, and emitting light at 615 nm and 665 nm. The binding ability of anti-apoptotic proteins to Bim protein peptides was indirectly reflected by the signal ratio of 665 nm and 615 nm. In the reaction, background wells without BCL2 and active wells for full binding of recombinant proteins without compounds and Bim protein peptides were set up.
In the case of `CC(C)c1ccc(CN2CCN(C3CC4(CCN(c5cc(Oc6cnc7[nH]ccc7c6)c(C(=O)NS(=O)(=O)c6ccc(NCC7(F)CCOCC7)c([N+](=O)[O-])c6)cc5F)CC4)C3)[C@H](c3ccccc3C(C)C)C2)cc1` [compound 193, (R)-2-((1H-pyrrolo[2,3-b]pyrid-5-yl)oxy)-5-fluoro-N-((4-(((4-fluorotetrahydro-2H-pyran-4-yl)methyl)amino)-3-nitrophenyl)sulfonyl)-4-(2-(4-(4-isopropylbenzyl)-2-(2-isopropylphenyl)piperazin-1-yl)-7-azaspiro[3.5]non-7-yl)benzamide], the IC50 was greater than 500 nM.
